Assay results as given in PMC11761228, “Cinnamic Acid Compounds (p-Coumaric, Ferulic, and p-Methoxycinnamic Acid) as Effective Antibacterial Agents Against Colistin-Resistant Acinetobacter baumannii” (Antibiotics, 2025).
≈ marks a conversion by molar mass, not a printed value.

What was measured:
[1] = system: COLR-Ab isolates; assay: BD Phoenix100 automated antibiotic susceptibility testing; type: cell-based, Acinetobacter baumannii; design: key to Susceptibility category: Resistant; Intermediate; Susceptible; details: for MIC: Acinetobacter baumannii; for Susceptibility category: CLSI criteria
Method: Five COLR-Ab strains isolated from various clinical specimens were obtained between 2016 and 2017 from the Microbiology Department of the Central Laboratory of Akdeniz University Hospital, Antalya, Turkey. All isolates were isolated from tracheal samples obtained from patients hospitalized in the intensive care unit. The stock solutions of A. baumannii strains were cultivated in blood agar (Becton Dickinson, Franklin Lakes, NJ, USA) at 35 ± 2 °C for 18–24 h. Identification of the colonies was confirmed using Matrix-Assisted Laser Desorption/Ionization Time-of-Flight (MALDI-TOF) mass spectroscopy (Bruker Daltonics, Bremen, Germany). […] The automated system was evaluated according to the criteria of the CLSI. […] E. coli NCTC 13846 COL was used as a quality control strain in broth dilution method to verify the MIC values. The isolates were stored at −80 °C until use and sub-cultured on blood agar for in vitro testing.

[2] = system: A. baumannii isolates; details: A. baumannii isolates, combination with COL; cited from earlier work
[3] = system: biofilm formation of COLR-Ab isolates; assay: Antibiofilm activity, microtiter plate-based crystal violet technique; type: cell-based, Acinetobacter baumannii; details: all COL doses except 1 μg/mL for COLR-Ab4; COLR-Ab1, 3, 4, 5
Method: Following the incubation period, the microtiter plates were gently washed three times with PBS. Subsequently, 200 µL of methanol (99%) was added to each well and left for 15 min. The methanol was then removed from the wells and the plate was left to dry for approximately 30 min, thus completing the fixation process. Then, 200 µL of 0.1% CV solution was added to each well and incubated for 20 min at room temperature. The plates were washed three times with PBS in order to remove the excess stain, and then 150 μL of 95% ethanol was added to the wells and incubated for 20 min. The optical density of the CV-stained biofilm was measured at a wavelength of 575 nm using a Thermo Labsystem Multiscan Spectrum microtiter plate reader (Thermolabsystem, Chantilly, VA, USA). Each experiment was conducted in triplicate.
In order to evaluate the antibiofilm activity of COL, p-CA, FA, and p-MCA, a 96-well microtiter plate-based CV test was carried out, with minor modifications to the methods previously described by Kırmusaoglu (2019) and Haney et al. (2021). Briefly, bacteria were inoculated into MHB medium containing 0.2% glucose and incubated at 37 °C for 16–20 h. The bacterial suspension, adjusted to 0.5 McFarland using the same medium, was prepared to a final concentration of 5 × 10^5 CFU/mL and inoculated into 96-well flat-bottom microtitre plates. […] Wells containing only medium were used as negative controls (MHB), and wells containing only medium and bacteria were used as growth controls. The plates were then incubated overnight at 35 ± 2 °C in a normal atmosphere. Following incubation, CV staining procedures were carried out in a similar manner to Section 4.4.
The antibiofilm index was calculated using the following formula:% Biofilm Mass = (100 × Sample OD575/Growth Control OD575)

[4] = system: COLR-Ab isolates; assay: Colistin broth disk elution method; type: cell-based, Acinetobacter baumannii; design: key to Susceptibility category: Resistant; Intermediate; Susceptible
Method: (§1) Five COLR-Ab strains isolated from various clinical specimens were obtained between 2016 and 2017 from the Microbiology Department of the Central Laboratory of Akdeniz University Hospital, Antalya, Turkey. All isolates were isolated from tracheal samples obtained from patients hospitalized in the intensive care unit. The stock solutions of A. baumannii strains were cultivated in blood agar (Becton Dickinson, Franklin Lakes, NJ, USA) at 35 ± 2 °C for 18–24 h. Identification of the colonies was confirmed using Matrix-Assisted Laser Desorption/Ionization Time-of-Flight (MALDI-TOF) mass spectroscopy (Bruker Daltonics, Bremen, Germany). […] The automated system was evaluated according to the criteria of the CLSI. The colistin broth disk elution method was used to test COL sensitivity, and all five isolates selected for the study were resistant to COL. E. coli NCTC 13846 COL was used as a quality control strain in broth dilution method to verify the MIC values. The isolates were stored at −80 °C until use and sub-cultured on blood agar for in vitro testing.

[5] = system: COLR-Ab isolates; assay: Broth microdilution MIC determination (CLSI); type: cell-based, Acinetobacter baumannii
Method: The broth microdilution method, as recommended by the CLSI, was used to determine the MIC values of COL, p-CA, FA, and p-MCA [46]. The serial two-fold dilutions of antimicrobial agents were prepared using 96-well microplates with cation-adjusted Mueller-Hinton Broth (MHB) (CAMHB, Merck KGaA, Darmstadt, Germany). Firstly, an initial concentration of 8192 µg/mL was chosen to determine the MIC values of all compounds against COLR-Ab isolates. […] The bacterial suspension was adjusted to the 0.5 McFarland standard and added to each well (final bacterial concentration: 5 × 10^5 colony forming units [CFU]/mL). Additionally, the microdilution plates included controls for bacterial growth (CAMHB + bacteria) and medium sterility (CAMHB). Microdilution plates were incubated at 35 ± 2 °C for 18–24 h. The MIC values were calculated by comparing the growth densities in the antibiotic-containing wells to those in the control wells used in each test set. Each experiment was conducted in triplicate.

[6] = system: Escherichia coli NCTC 13846; assay: Broth microdilution MIC, quality control strain; type: cell-based; details: E. coli NCTC 13846 quality control strain
Method: as §1
The broth microdilution method, as recommended by the CLSI, was used to determine the MIC values of COL, p-CA, FA, and p-MCA [46]. […] The MIC values were calculated by comparing the growth densities in the antibiotic-containing wells to those in the control wells used in each test set. […]

[7] = COLR-Ab1, BD Phoenix 100 system
[8] = COLR-Ab2, BD Phoenix 100 system
[9] = COLR-Ab3, BD Phoenix 100 system
[10] = COLR-Ab4, BD Phoenix 100 system
[11] = COLR-Ab5, BD Phoenix 100 system
[12] = COLR-Ab1, colistin broth disk elution
[13] = COLR-Ab2, colistin broth disk elution
[14] = COLR-Ab3, colistin broth disk elution
[15] = COLR-Ab4, colistin broth disk elution
[16] = COLR-Ab5, colistin broth disk elution

| Compound | MIC [1, 7] [µg/mL] | MIC [1, 8] [µg/mL] | MIC [1, 9] [µg/mL] | MIC [1, 10] [µg/mL] | MIC [1, 11] [µg/mL] | Susceptibility category [1, 7] | Susceptibility category [1, 8] | Susceptibility category [1, 9] | Susceptibility category [1, 10] | Susceptibility category [1, 11] | Combination effect with COL in words [2] | further results |
| --- | --- | --- | --- | --- | --- | --- | --- | --- | --- | --- | --- | --- |
| NCC[C@H](O)C(=O)N[C@@H]1C[C@H](N)[C@@H](O[C@H]2O[C@H](CN)[C@@H](O)[C@H](O)[C@H]2O)[C@H](O)[C@H]1O[C@H]1O[C@H](CO)[C@@H](O)[C@H](N)[C@H]1O [AMK, Amikacin] | ≤ 4 | > 16 | > 16 | > 16 | > 16 | S | R | R | R | R | – | – |
| CNC(C)C1CCC(N)C(OC2C(N)CC(N)C(OC3OCC(C)(O)C(NC)C3O)C2O)O1 (stereo not shown) [GEN, Gentamicin] | ≤ 1 | > 4 | > 4 | > 4 | > 4 | S | R | R | R | R | – | – |
| C[C@@H](O)[C@H]1C(=O)N2C(C(=O)O)=C(SCCN=CN)C[C@H]12 [IPM, Imipenem] | ≤ 0.25 | > 8 | 4 (≈ 13.4 µM) | > 8 | > 8 | S | R | I | R | R | – | – |
| C[C@@H](O)[C@H]1C(=O)N2C(C(=O)O)=C(S[C@@H]3CN[C@H](C(=O)N(C)C)C3)[C@H](C)[C@H]12 [MEM, Meropenem] | ≤ 0.125 | > 8 | > 8 | > 8 | > 8 | S | R | R | R | R | – | – |
| CCN[C@@H]1C[C@H](N)[C@@H](O[C@H]2OC(CN)=CC[C@H]2N)[C@H](O)[C@H]1O[C@H]1OC[C@](C)(O)[C@H](NC)[C@H]1O [NET, Netilmicin] | 1 (≈ 2.1 µM) | > 4 | > 4 | > 4 | > 4 | S | R | R | R | R | – | – |
| O=C(O)/C=C/c1ccc(O)c(O)c1 [caffeic acid] | – | – | – | – | – | – | – | – | – | – | Synergistic activity | – |
| O=C(O)c1cc(O)c(O)c(O)c1 [gallic acid] | – | – | – | – | – | – | – | – | – | – | Synergistic activity | – |
| O=C(O)c1ccc(O)c(O)c1 [protocatechuic acid] | – | – | – | – | – | – | – | – | – | – | Synergistic activity | – |
| colistin | – | – | – | – | – | – | – | – | – | – | – | Inhibition of biofilm formation [3]: 19.7–75.2%; MIC [4, 12]: > 4 µg/mL; Susceptibility category [4, 12]: R; MIC [4, 13]: > 4 µg/mL; Susceptibility category [4, 13]: R; MIC [4, 14]: > 4 µg/mL; Susceptibility category [4, 14]: R; MIC [4, 15]: > 4 µg/mL; Susceptibility category [4, 15]: R; MIC [4, 16]: > 4 µg/mL; Susceptibility category [4, 16]: R; MIC ([5]; COLR-Ab1): 32 µg/mL; MIC ([5]; COLR-Ab2): 64 µg/mL; MIC ([5]; COLR-Ab3): 64 µg/mL; MIC ([5]; COLR-Ab4): 128 µg/mL; MIC ([5]; COLR-Ab5): 64 µg/mL; MIC [6]: 4 µg/mL |
